We go through 18 compounds from patent publication US20220153734A1, “Pyrazolopyridine Compounds For IRE1 Inhibition” (Optikira, LLC, priority 2019, published 2022).

The test system of assay [1] is ARPE-19 cells stably expressing XBP1 (a.a. 1-376). As to the kind of experiment: Cellular XBP1 splicing assay (NanoLuc luciferase, thapsigargin). Format: cell-based. The settings on record: thapsigargin 150 nM. As for the experimental part:
Cellular XBP1 Splicing Assay
ARPE-19 cells stably expressing XBP1 (a.a. 1-376) with nano-luciferase gene sequence linked so it is in frame when XBP1 is spliced, were cultured in F12 media, 10% FBS, 0.044% sodium bicarbonate, 150 μg/ml hygromycin B and seeded for assays at 5,000 cells in 384 well plates in culture media without hygromycin B and incubated at 37° C./5% CO2. After overnight incubation test compounds were added to the cell plate in a 10-point ½ log dilution series in duplicate (final DMSO concentration 0.117%). After further incubation of 30 minutes thapsigargin was added (final concentration 150 nM) and then another 4 hour incubation. A NanoLuc luciferase assay (Promega) was used according to the manufacturer's instructions to detect the luciferase and luminescence measured on a luminometer (EnVision, PerkinElmer). IC50 values calculated by fitting a sigmoidal curve to percent inhibition of control of compound concentration.

Assay [2] concerns the target T1, IRE1α (Homo sapiens, UniProt O75460).
T1 construct: purchased Signal Chem E31-11G
Put plainly: Biochemical assay: inhibition of RNase activity of IRE1α. As to conditions: enzyme 0.325 nM, substrate 100 nM, 20 minutes. As for the experimental part: Biochemical Assay: Inhibition of RNase Activity of IRE1α
The RNase reactions were performed in 384 well black ProxiPlate-384 Plus plates (PERKIN Elmer) using 50 mM Tris assay buffer with 0.5 mM MgCl2, 10 mM KCl, 0.03% Tween, 2 mM DTT and 1% DMSO. Test compounds were prepared on the day of assay and dispensed using D300 digital dispenser as a 10-point ½ log dilution series in duplicate, normalized to a final DMSO concentration of […]. Test compounds were pre-incubated for 30 min at room temperature with IRE1α kinase (E31-11G from Signal Chem) in 2.5 μL of assay buffer. Then 2.5 μl of assay buffer containing substrate (5′ Alexa Fluor 647-rCrArU rGrUrC rCrGrC rArGrC rGrCrArUrG-Iowa Black RQ quencher 3′) added, giving a final concentration of enzyme of 0.325 nM and of substrate of 100 nM. After 20 minutes incubation at room temperature the reactions were stopped by added 5 μL of 5M urea, incubated at room temperature for 10 minutes and fluorescence measured on a plate reader (EnVision, PerkinElmer). IC50 values calculated by fitting a sigmoidal curve to percent inhibition of control versus compound concentration.

The IC50 is the point on the concentration scale where inhibition reaches its midpoint.

T1 sequence (O75460 468-977 limits assumed): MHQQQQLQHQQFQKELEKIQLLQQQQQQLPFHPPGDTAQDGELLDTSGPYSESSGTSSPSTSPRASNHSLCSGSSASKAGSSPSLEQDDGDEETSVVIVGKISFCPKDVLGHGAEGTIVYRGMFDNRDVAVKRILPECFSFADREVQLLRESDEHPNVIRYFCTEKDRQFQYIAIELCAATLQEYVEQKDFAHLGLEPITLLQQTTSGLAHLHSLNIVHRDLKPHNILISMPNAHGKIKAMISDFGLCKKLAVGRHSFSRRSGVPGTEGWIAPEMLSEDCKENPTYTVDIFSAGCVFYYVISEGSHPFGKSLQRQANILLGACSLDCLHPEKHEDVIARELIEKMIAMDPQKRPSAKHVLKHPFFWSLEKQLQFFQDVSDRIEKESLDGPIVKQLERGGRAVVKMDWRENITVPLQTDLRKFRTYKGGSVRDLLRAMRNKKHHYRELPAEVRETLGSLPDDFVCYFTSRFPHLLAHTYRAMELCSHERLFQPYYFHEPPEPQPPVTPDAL

For `CCn1nc(-c2ccc(NS(=O)(=O)c3cc(OC)ccc3Cl)c(F)c2)c2c(N)ncc(C3=CCC(NC4COC4)CC3)c21` (stereo not drawn) [Compound B37, N-(4-(4-amino-1-ethyl-7-(4-(oxetan-3-ylamino)cyclohex-1-en-1-yl)-1H-pyrazolo[4,3-c]pyridin-3-yl)-2-fluorophenyl)-2-chloro-5-methoxybenzenesulfonamide], the IC50 was 74 nM in assay [1] (Homo sapiens, ARPE-19, 4 h) and 20 nM in assay [2].
For `COCCN[C@H]1CC[C@H](c2cnc(N)c3c(-c4cc(F)c(NS(=O)(=O)c5cc(Cl)ccc5F)cc4F)nn(C(C)C)c32)CC1` [Compound A4, N-(4-(4-amino-1-isopropyl-7-((1r,4r)-4-((2-methoxyethyl)amino)cyclohexyl)-1H-pyrazolo[4,3-c]pyridin-3-yl)-2,5-difluorophenyl)-5-chloro-2-fluorobenzenesulfonamide] the same measures were 10 nM and 1.3 nM.
On to `CCn1nc(-c2ccc(NS(=O)(=O)Cc3ccccc3F)c(F)c2)c2c(N)ncc(C3=CCC(NC4COC4)CC3)c21` (single isomer, unassigned) [Compound B27, N-(4-(4-amino-1-ethyl-7-(4-(oxetan-3-ylamino)cyclohex-1-en-1-yl)-1H-pyrazolo[4,3-c]pyridin-3-yl)-2-fluorophenyl)-1-(2-fluorophenyl)methanesulfonamide], for which the IC50 in assay [1] (4 hour) was found to be 78 nM; in assay [2] it was 5.9 nM.
For `CC(CF)NC1CC=C(c2cnc(N)c3c(-c4ccc(NS(=O)(=O)c5ccccc5Cl)c(F)c4)nn(C(C)C)c23)CC1` (single isomer, unassigned) [Compound B40, N-(4-(4-amino-7-(4-((1-fluoropropan-2-yl)amino)cyclohex-1-en-1-yl)-1-isopropyl-1H-pyrazolo[4,3-c]pyridin-3-yl)-2-fluorophenyl)-2-chlorobenzenesulfonamide] the same measures were 67 nM and 14 nM.
For `CC(C)n1nc(-c2cc(F)c(NS(=O)(=O)c3ccccc3Cl)cc2F)c2c(N)ncc(C3=CCC(NC4COC4)CC3)c21` (racemic) [racemic mixture of B10 & B11, N-(4-(4-amino-1-isopropyl-7-(4-(oxetan-3-ylamino)cyclohex-1-en-1-yl)-1H-pyrazolo[4,3-c]pyridin-3-yl)-2,5-difluorophenyl)-2-chlorobenzenesulfonamide], the IC50 in assay [1] (Homo sapiens, ARPE-19, 4 h) amounted to 160 nM; in assay [2] it was 60 nM.
For the compound `Nc1ncc(C2=CCC(NC3COC3)CC2)c2c1c(-c1ccc(NS(=O)(=O)c3ccccc3Cl)c(F)c1)nn2C1CC1` (single isomer, unassigned) [Compound B18, N-(4-(4-amino-1-cyclopropyl-7-(4-(oxetan-3-ylamino)cyclohex-1-en-1-yl)-1H-pyrazolo[4,3-c]pyridin-3-yl)-2-fluorophenyl)-2-chlorobenzenesulfonamide], the IC50 in assay [1] (4 hour) worked out at 82 nM; in assay [2], 9.9 nM.
Taken in the same sequence, the figures for `CC(C)n1nc(-c2ccc(NS(=O)(=O)c3cc(Cl)ccc3F)c(F)c2)c2c(N)ncc(C3=CCC(NC4COC4)CC3)c21` (single isomer, unassigned) [Compound B14, N-(4-(4-amino-1-isopropyl-7-(4-(oxetan-3-ylamino)cyclohex-1-en-1-yl)-1H-pyrazolo[4,3-c]pyridin-3-yl)-2-fluorophenyl)-5-chloro-2-fluorobenzenesulfonamide] were 160 nM and 6.8 nM.
Taken in the same sequence, the figures for `CCn1nc(-c2ccc(NS(=O)(=O)c3cc(C)ccc3F)c(F)c2)c2c(N)ncc(C3=CCC(NC4COC4)CC3)c21` (single isomer, unassigned) [Compound B36, N-(4-(4-amino-1-ethyl-7-(4-(oxetan-3-ylamino)cyclohex-1-en-1-yl)-1H-pyrazolo[4,3-c]pyridin-3-yl)-2-fluorophenyl)-2-fluoro-5-methylbenzenesulfonamide] were 210 nM and 51 nM.
In the case of `COCCN[C@H]1CC[C@H](c2cnc(N)c3c(-c4cc(F)c(NS(=O)(=O)c5ccc(Cl)cc5F)cc4F)nn(C(C)C)c32)CC1` [Compound A16, N-(4-(4-amino-1-isopropyl-7-((1r,4r)-4-((2-methoxyethyl)amino)cyclohexyl)-1H-pyrazolo[4,3-c]pyridin-3-yl)-2,5-difluorophenyl)-4-chloro-2-fluorobenzenesulfonamide], the IC50 in assay [1] (Homo sapiens, ARPE-19, 4 h) is 77 nM; in assay [2], 7.8 nM.
For `CCn1nc(-c2ccc(NS(=O)(=O)c3ccccc3Cl)c(F)c2)c2c(N)ncc(C3=CCC(NC4COC4)CC3)c21` (racemic) [racemic mixture of B61 & B62, N-(4-(4-amino-1-ethyl-7-(4-(oxetan-3-ylamino)cyclohex-1-en-1-yl)-1H-pyrazolo[4,3-c]pyridin-3-yl)-2-fluorophenyl)-2-chlorobenzenesulfonamide] the same measures were 100 nM and 40 nM.
Taken in the same sequence, the figures for `COCCN[C@H]1CC[C@H](c2cnc(N)c3c(-c4cc(F)c(NS(=O)(=O)Cc5ccccc5Cl)cc4F)nn(C(C)C)c32)CC1` [Compound A20, N-(4-(4-amino-1-isopropyl-7-((1r,4r)-4-((2-methoxyethyl)amino)cyclohexyl)-1H-pyrazolo[4,3-c]pyridin-3-yl)-2,5-difluorophenyl)-1-(2-chlorophenyl)methanesulfonamide] were 13 nM and 1.2 nM.
As to `CC(F)CNC1CC=C(c2cnc(N)c3c(-c4ccc(NS(=O)(=O)c5ccccc5Cl)c(F)c4)nn(C(C)C)c23)CC1` (single isomer, unassigned) [Compound B47, N-(4-(4-amino-7-(4-((2-fluoropropyl)amino)cyclohex-1-en-1-yl)-1-isopropyl-1H-pyrazolo[4,3-c]pyridin-3-yl)-2-fluorophenyl)-2-chlorobenzenesulfonamide], the IC50 in assay [1] (4 hour) was 17 nM; in assay [2] it was 4.5 nM.
For `Nc1ncc(C2=CCC(NC3COC3)CC2)c2c1c(-c1ccc(NS(=O)(=O)Cc3ccccc3Cl)c(F)c1)nn2C1CC1` (single isomer, unassigned) [Compound B23, N-(4-(4-amino-1-cyclopropyl-7-(4-(oxetan-3-ylamino)cyclohex-1-en-1-yl)-1H-pyrazolo[4,3-c]pyridin-3-yl)-2-fluorophenyl)-1-(2-chlorophenyl)methanesulfonamide] the same measures were 46 nM and 3.1 nM.
For the compound `Cc1ccc(F)c(S(=O)(=O)Nc2ccc(-c3nn(C(C)C)c4c(C5=CCC(NC6COC6)CC5)cnc(N)c34)cc2F)c1` (single isomer, unassigned) [Compound B16, N-(4-(4-amino-1-isopropyl-7-(4-(oxetan-3-ylamino)cyclohex-1-en-1-yl)-1H-pyrazolo[4,3-c]pyridin-3-yl)-2-fluorophenyl)-2-fluoro-5-methylbenzenesulfonamide], the IC50 in assay [1] (4 hour) came to 110 nM; in assay [2] it was 13 nM.
For `COCCNC1CC=C(c2cnc(N)c3c(-c4ccc(NS(=O)(=O)Cc5ccccc5Cl)c(F)c4)nn(C(C)C)c23)CC1` (single isomer, unassigned) [Compound B55, N-(4-(4-amino-1-isopropyl-7-(4-((2-methoxyethyl)amino)cyclohex-1-en-1-yl)-1H-pyrazolo[4,3-c]pyridin-3-yl)-2-fluorophenyl)-1-(2-chlorophenyl)methanesulfonamide] the same measures were 9 nM and 0.9 nM.
Taken in the same sequence, the figures for `CC(C)n1nc(-c2ccc(NS(=O)(=O)c3ccccc3Cl)c(F)c2)c2c(N)ncc(C3=CCC(NC4CC(F)(F)C4)CC3)c21` (single isomer, unassigned) [Compound B51] were 190 nM and 31 nM.
As to `CC(C)n1nc(-c2ccc(NS(=O)(=O)c3ccccc3Cl)c(F)c2)c2c(N)ncc(C3=CCC(NCCF)CC3)c21` (stereo not drawn) [Compound B63, N-(4-(4-amino-7-(4-((2-fluoroethyl)amino)cyclohex-1-en-1-yl)-1-isopropyl-1H-pyrazolo[4,3-c]pyridin-3-yl)-2-fluorophenyl)-2-chlorobenzenesulfonamide], the IC50 in assay [1] (Homo sapiens, ARPE-19, 4 h) came to 21 nM; in assay [2], 16 nM.
Turning to `Nc1ncc(C2=CCC(NC3COC3)CC2)c2c1c(-c1ccc(NS(=O)(=O)Cc3ccccc3Cl)c(F)c1)nn2C1CC1` (single isomer, unassigned) [Compound B22, N-(4-(4-amino-1-cyclopropyl-7-(4-(oxetan-3-ylamino)cyclohex-1-en-1-yl)-1H-pyrazolo[4,3-c]pyridin-3-yl)-2-fluorophenyl)-1-(2-chlorophenyl)methanesulfonamide], the IC50 in assay [1] (4 hour) worked out at 10 nM; in assay [2] it was 0.9 nM.
